In PMC9318133 (International Journal of Molecular Sciences, 2022):
Like-named read-outs stand apart in the source and are kept apart here.

Experiments:
human CB2 receptors [1] = target: T1, human CB2 receptors (Homo sapiens, UniProt P34972); set-up: method as in PMID 27527584, PMID 25769232; conditions: read-out: hCB2 CHO Membranes Ki; [3H]-CP-55,940 competition binding; mean ± SEM; data elaborated from ref [15],[33]; cited from earlier work
T1 construct: host or cells: CHO cells

mouse CB2 receptors = target: T2, mouse CB2 receptors (Mus musculus, UniProt P47936); set-up: method as in PMID 27527584, PMID 25769232; conditions: read-out: Mouse Spleen Membranes CB2 Ki; [3H]-CP-55,940 competition binding; mean ± SEM; data elaborated from ref [15],[33]; cited from earlier work
T2 construct: membranes from the mouse brain and spleen were used, respectively; from tissue; host or cells: mouse spleen membranes, CD-1 mice
T2 sequence (P47936 whole entry): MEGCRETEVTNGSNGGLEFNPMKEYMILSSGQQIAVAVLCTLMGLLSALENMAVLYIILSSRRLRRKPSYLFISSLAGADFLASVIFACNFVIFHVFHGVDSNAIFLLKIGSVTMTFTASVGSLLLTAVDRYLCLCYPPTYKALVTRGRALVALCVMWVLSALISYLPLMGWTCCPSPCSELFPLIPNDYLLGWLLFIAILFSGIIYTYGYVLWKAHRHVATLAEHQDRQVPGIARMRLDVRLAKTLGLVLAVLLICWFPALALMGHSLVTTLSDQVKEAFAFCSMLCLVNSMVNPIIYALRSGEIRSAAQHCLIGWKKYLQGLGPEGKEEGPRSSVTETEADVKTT

CD-1 mice [2] = system: CD-1 mice; set-up: method as in PMID 25769232, PMID 25987201; conditions: ED50 + SEM, data elaborated from ref [33],[34]; cited from earlier work
CD-1 mice [3] = system: CD-1 mice; set-up: method as in PMID 25769232, PMID 25987201; conditions: ED50 + SEM, data elaborated from ref [33],[34]; cited from earlier work; remark: listed apart in the source
CD-1 mice [4] = system: CD-1 mice; set-up: method as in PMID 25769232, PMID 25987201; conditions: ED50 + SEM, data elaborated from ref [33],[34]; cited from earlier work; remark: listed apart in the source
CD-1 mice [5] = system: CD-1 mice; set-up: method as in PMID 25769232, PMID 25987201; conditions: ED50 + SEM, data elaborated from ref [33],[34]; cited from earlier work; remark: listed apart in the source
CD-1 mice [6] = system: CD-1 mice; set-up: method as in PMID 25769232, PMID 25987201; conditions: ED50 + SEM, data elaborated from ref [33],[34]; cited from earlier work; remark: listed apart in the source
human CB2 receptors [7] = target: T1, human CB2 receptors; test: [3H]-CP-55,940 competition binding, CHO cell membranes transfected with human CB2 receptors
Protocol: To obtain membranes, cells were washed with phosphate-buffered saline (PBS) and scraped off with ice-cold hypotonic buffer (5 mM Tris HCl, 2 mM EDTA, pH 7.4). The cell suspension was homogenized with a Polytron and then centrifuged for 30 min at 40,000× g. The membrane pellet was suspended in 50 mM Tris HCl buffer (pH 7.4) containing 2.5 mM ethylenediaminetetraacetic acid (EDTA), 5 mM MgCl2, and 0.5 mg/mL bovine serum albumin (BSA) for CB1 receptors or in 50 mM Tris HCl (pH 7.4), 1 mM EDTA, 5 mM MgCl2, and 0.5% BSA for CB2 receptors.
For human cannabinoid receptors, membranes obtained from CHO cells transfected with human CB1 or CB2 receptors (2 µg protein/100 µL) were used. […] Bound and free radioactivity were separated by filtering the assay mixture through Whatman GF/C glass fiber filters using a Brandel cell harvester (Brandel Instruments, Unterföhring, Germany).
The protein concentration was determined according to a Bio-Rad method with bovine serum albumin as a reference standard. Inhibitory binding constants, Ki, were calculated from the IC50 values according to the Cheng and Prusoff equation:Ki = IC50/(1 + [C*]/KD*) where [C*] is the concentration of the radioligand and KD* its dissociation constant. Functional experiments were analyzed by non-linear regression analysis using the equation for a sigmoid concentration–response curve (GraphPad Prism, San Diego, CA, USA). […]

human CB1 receptors = target: T3, human CB1 receptors (Homo sapiens, UniProt P21554); test: Cyclic AMP assay (forskolin-stimulated) in CHO cells transfected with human CB1 receptors; format: cell-based
T3 construct: host or cells: CHO cells
T3 sequence (P21554 whole entry): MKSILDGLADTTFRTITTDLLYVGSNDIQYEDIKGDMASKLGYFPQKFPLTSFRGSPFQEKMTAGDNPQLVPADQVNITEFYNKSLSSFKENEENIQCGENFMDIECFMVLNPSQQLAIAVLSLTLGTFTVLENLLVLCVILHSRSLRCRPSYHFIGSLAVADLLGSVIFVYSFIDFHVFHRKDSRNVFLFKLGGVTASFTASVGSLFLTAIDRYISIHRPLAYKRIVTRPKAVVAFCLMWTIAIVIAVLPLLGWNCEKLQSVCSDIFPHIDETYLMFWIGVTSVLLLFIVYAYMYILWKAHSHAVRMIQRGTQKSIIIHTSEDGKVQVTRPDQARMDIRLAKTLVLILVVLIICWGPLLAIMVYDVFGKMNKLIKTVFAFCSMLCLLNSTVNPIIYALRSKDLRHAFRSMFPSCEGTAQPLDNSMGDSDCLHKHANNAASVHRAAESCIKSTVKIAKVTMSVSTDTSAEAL
Protocol: Chinese hamster ovarian (CHO) cells transfected with human CB1 or CB2 receptors (Perkin Elmer Life and Analytical Sciences, Melville, NY, USA) were grown adherently and maintained in Ham’s F12 containing 10% fetal bovine serum, penicillin (100 U/mL), streptomycin (100 µg/mL), and Geneticin (G418, 0.4 mg/mL) at 37 °C in 5% CO2/95% air. To obtain membranes, cells were washed with phosphate-buffered saline (PBS) and scraped off with ice-cold hypotonic buffer (5 mM Tris HCl, 2 mM EDTA, pH 7.4). The cell suspension was homogenized with a Polytron and then centrifuged for 30 min at 40,000× g. […]
The protein concentration was determined according to a Bio-Rad method with bovine serum albumin as a reference standard. Inhibitory binding constants, Ki, were calculated from the IC50 values according to the Cheng and Prusoff equation:Ki = IC50/(1 + [C*]/KD*) where [C*] is the concentration of the radioligand and KD* its dissociation constant. Functional experiments were analyzed by non-linear regression analysis using the equation for a sigmoid concentration–response curve (GraphPad Prism, San Diego, CA, USA). All the data are expressed as the mean ± SEM of three independent experiments.

CD-1 mice [8] = test: Visual object response test; format: in vivo, mouse
CD-1 mice [9] = test: Visual placing response test; format: in vivo, mouse
CD-1 mice [10] = test: Breath rate evaluation; format: in vivo, mouse
CD-1 mice [11] = test: Drag test (number of steps); format: in vivo, mouse
[12] = 0.01–30 mg/kg i.p., monitored over 5 h
[13] = Mus musculus, ip, mice, ED50 + SEM

T1 sequence (P34972 whole entry): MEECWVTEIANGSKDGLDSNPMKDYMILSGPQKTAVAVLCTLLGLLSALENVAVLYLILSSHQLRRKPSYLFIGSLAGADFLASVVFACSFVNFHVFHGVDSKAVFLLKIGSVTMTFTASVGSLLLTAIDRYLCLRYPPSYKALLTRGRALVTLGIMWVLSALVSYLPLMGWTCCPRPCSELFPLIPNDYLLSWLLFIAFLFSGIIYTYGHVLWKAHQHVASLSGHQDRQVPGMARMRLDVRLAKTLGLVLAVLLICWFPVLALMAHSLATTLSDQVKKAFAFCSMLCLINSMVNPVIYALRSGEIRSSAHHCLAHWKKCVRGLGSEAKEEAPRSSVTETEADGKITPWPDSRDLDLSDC

SMILES | Ki (human CB2 receptors [1]) [µM] | Ki (mouse CB2 receptors) [µM] | ED50 Visual Object (CD-1 mice [2]) [mg/kg] | ED50 Startle Reflex (CD-1 mice [3]) [mg/kg] | ED50 Core Temperature (CD-1 mice [4]) [mg/kg] | ED50 Tail Pinch (CD-1 mice [5]) [mg/kg] | ED50 Drag Test (CD-1 mice [6]) [mg/kg] | Ki (human CB2 receptors [7]) [µM] | IC50 (human CB1 receptors) [µM] | effect on visual object response (CD-1 mice [8]; [12]) | ED50 (CD-1 mice [8]; Mus musculus, ip, mice, ED50 + SEM, non-linear regression) [mg/kg] | effect on visual placing response (CD-1 mice [9]; [12]) | ED50 (CD-1 mice [9]; [13]) [mg/kg] | lowest dose tested with significant inhibitory effect on visual placing response (CD-1 mice [9]; i.p.) [mg/kg] | effect on breath rate (CD-1 mice [10]; [12]) | ED50 (CD-1 mice [10]; [13]) [mg/kg] | dose at which inhibitory effect on breath rate was significant (CD-1 mice [10]; i.p., after 120 min, persisted up to 5 h) [mg/kg] | effect on motor activity in the drag test at low dose (CD-1 mice [11]; 0.1 mg/kg i.p., lasted up to 280 min) | effect on motor activity in the drag test at higher doses (CD-1 mice [11]; 6–30 mg/kg i.p.) | ED50 (CD-1 mice [11]; Mus musculus, ip, mice, ED50 + SEM, calculated on inhibitory effect of the highest doses) [mg/kg]
CCCCCn1cc(C(=O)c2cccc3ccccc23)c2ccccc21 [JWH-018, 1-naphthalenyl(1-pentyl-1H-indol-3-yl)-methanone] | 0.00863 ± 0.00069 | 0.00713 ± 0.00053 | 0.32 ± 0.06 | 0.53 ± 0.05 | 1.7 ± 0.04 | 1.8 ± 0.11 | 2.4 ± 0.12 | – | – | – | – | – | – | – | – | – | – | – | – | –
CCCCCn1cc(Cc2cccc3ccccc23)c2ccccc21 [JWH-175, 3-(1-naphthalenylmethyl)-1-pentyl-1H-indole] | – | – | – | – | – | – | – | 0.363 ± 0.031 | 0.072 ± 0.005 | dose-dependently reduced the visual object response | 9.6 ± 0.02 | dose-dependently reduced the visual placing response | 5.2 ± 0.08 | 0.01 | dose-dependently reduced the breath rate | 1.7 ± 0.15 | 0.1 | facilitated | inhibited | 10.9 ± 0.12
